We go through 84 compounds from a melting point compilation (Tetko et al.; mined from patent text by program, amines drawn as free bases though some values may be those of a salt).

The structures appear in SMILES notation. A value given as a limit tells only on which side of the number the result lay.

Turning to `CCOC(=O)c1ncc2[nH]c3cccc(OC4CCC4)c3c2c1COC`, the melting point was 196 to 197 °C.

The compound `CCCCCCCCCCCCCCCCCCOP(=O)(Cc1c(C)cc(C(C)(C)C)c(O)c1C)OCCCCCCCCCCCCCCCCCC` came in with a melting point of 70 to 72 °C.

In turn, `Cn1ccc2c1CCn1ccnc1C2=C1CCN(CCNc2ncccn2)CC1` gave a melting point of 202 °C.

`COc1ccc2c(c1)c(Cc1cc(=O)n(C3CCCCC3)[nH]1)c(C)n2Cc1ccccc1`: the melting point was 102 to 105 °C.

Take `COc1ccc(C(O)CCSc2ccc(S(N)(=O)=O)s2)cc1` (centres undefined): the melting point was 111 to 112 °C.

Regarding `COC(=O)CCC(C(=O)C=Cc1ccc(O)c(OC(F)(F)F)c1)C(=O)C=Cc1ccc(O)c(OC(F)(F)F)c1` (centres undefined), the melting point lay within 142 to 143 °C.

Consider `Cn1c2ccc(C=O)cc2c2sc3ccccc3c21`, for which the melting point lay within 188 to 190 °C.

Compound `COCCOc1c(C)cc(C#CC2(O)CN3CCC2CC3)cc1C` (centres undefined) showed a melting point of 120 °C.

The compound `O=C(O)c1ccc(N2CCCCC2)c(NC(=O)C(CS)Cc2ccccc2)c1` (centres undefined) gave a melting point of 142 to 146 °C.

Compound `CSc1nn2c(N3CCN(c4ccccc4)CC3)cc(C)nc2c1S(=O)(=O)c1ccccc1` gave a melting point of more than 230 °C.

Consider `O=C(O)c1ccc(Cl)nc1C(F)(F)F`, for which the melting point fell in the range of 154 to 156 °C.

For the compound `C=CCNC(=O)C(C)=Cc1cc([N+](=O)[O-])ccc1Cl`, the melting point lay in the range of 111 to 112 °C.

In turn, `COc1ccc(COCc2nc(C(C)C)c(Sc3cc(Cl)cc(Cl)c3)n2CC(=O)c2ccccc2)cc1` had a melting point of 205 to 211 °C.

With `COC(=O)CCc1ccc(Nc2ccccc2[N+](=O)[O-])cc1`, the melting point fell in the range of 68 to 70 °C.

With `CSCCC(=O)N(C)c1sc(-c2cncc(F)c2)nc1C#N`, the melting point was 97 to 98 °C.

`O=C(NCCO)c1ccc(C(=O)N2CCN(CCO)CC2)nc1`: the melting point fell in the range of 126 to 128 °C.

`CC(C)(C)NN=C(O)C(=O)c1ccccc1` yielded a melting point of 138 to 139 °C.

Compound `Nc1cccc(Nc2ncnc3[nH]cc(C(=O)c4ccccc4)c23)c1` gave a melting point of 280 to 282 °C.

In turn, `O=C(O)/C=C/c1ccc(C(=C2CCCCCC2)c2ccc(O)c(F)c2)cc1` yielded a melting point of 164 to 165 °C.

Compound `O=C(C=Cc1ccc(N2CCCC2)nc1)N1CCc2c([nH]c3ccccc23)C1c1ccc2c(c1)CCO2` (centres undefined) yielded a melting point of 201 °C.

Regarding `CCCCc1c2c(nn1C(C)(C)C)c(N)nc1ccccc12`, the melting point fell in the range of 222 to 223 °C.

As to `CCCCCCCCCCCCNC(=O)COc1ccc(O)cc1[N+](=O)[O-]`, the melting point was in the range of 150 to 151 °C.

As for `O=C(NC1CCCCC1)c1ccc(F)c2c1CC(N(CCCc1c[nH]c3ccc(F)cc13)C1CCC1)CO2` (centres undefined), the melting point came out at 134 °C.

Take `O=C1CC(Sc2ccccc2)C(O)(c2ccccc2)C(Sc2ccccc2)C1` (centres undefined): the melting point was in the range of 126 to 127 °C.

Compound `COc1cc2c(cc1Nc1ncc(Cl)c(Nc3ccccc3S(=O)(=O)C(C)C)n1)CCN(CC(=O)N(C)C)CC2` displayed a melting point of 83 to 94 °C.

For the compound `O=C(O)c1cccc(CN2CCC(c3cn(Cc4ccoc4)c4ncccc34)CC2)c1`, the melting point is 177 to 179 °C.

`Cn1c(COc2ccc(CC3SC(=O)NC3=O)cc2)nc2ccc(Oc3ccc(NC(=O)c4ccc5ccccc5c4)cc3)cc21` (centres undefined): the melting point was in the range of 221 to 223 °C.

For the compound `Fc1cc(Cl)c(CCl)cc1-c1ncnc(C(F)F)c1Cl`, the melting point lay within 132 to 133 °C.

In turn, `CC(=O)Oc1ccc(C(=O)OC2C=C(C)C(=O)CC(C)(C)C2O)cc1` (centres undefined) displayed a melting point of 132 to 133 °C.

`Cc1ccc2nc(NC(=O)c3ccc(C(C)(C)C)cc3)cn2c1` yielded a melting point of 259 to 260 °C.

As for `O=C(CCN1CCOCC1)Nc1ccc2c(=O)c3ccc(NC(=O)CCN4CCOCC4)cc3[nH]c2c1`, the melting point was more than 320 °C.

On to `CCCN(CCC)C(=O)Cn1c(-c2ccc([N+](=O)[O-])cc2)nc2cccnc21`, for which the melting point was in the range of 205 to 208 °C.

In the case of `C=C1C2CCCCC2CC2C(OC)OCC12` (centres undefined), the melting point was 53 to 55 °C.

Turning to `CCc1nc2cc(C(N)=O)c(Cl)cc2n1-c1ccc(CCOC(=O)NS(=O)(=O)c2ccc(C)cc2)cc1`, the melting point lay in the range of 170 to 175 °C.

The compound `CN(CCCCCNC(=NCCSCc1csc(NC(=N)N)n1)NC#N)CCN(Cc1ccc(F)cc1)c1ccccn1` gave a melting point of 103 °C.

`CC(C)c1ccccc1S(=O)(=O)c1ccc(OCCCNC(C)(C)C)cc1` registered a melting point of 116 °C.

The compound `CCC(CC)CNC(=O)c1cccc(CN2C(=O)C3(COc4cc5c(cc43)CCO5)c3ccccc32)c1` (centres undefined) returned a melting point of 105 to 106 °C.

`COc1ccc(-c2c3c(c(C)c4ccc(OC)cc24)C(=O)NC3=O)cc1` displayed a melting point of 282 to 284 °C.

`Cc1ccc(CNC(=O)C2=C(C(=O)Nc3ccc(Br)cc3F)CCCC2)cc1` yielded a melting point of 167 to 168 °C.

`CC1(C)OCc2cc([C@@H](O)CN[C@H]3CCc4ccc(O)cc4C3)ccc2O1` showed a melting point of 156 to 158 °C.

On to `CC(Oc1ccc(Oc2cnc3ccccc3n2)cc1)C(=O)O` (centres undefined), for which the melting point was 137 to 141 °C.

In turn, `Nc1ccc([C@H]2CC[C@H](NCCCc3ccccc3)CC2)cc1` had a melting point of 60 to 63 °C.

`O=CNC1CCc2ccccc2N(C=O)C1` (centres undefined): the melting point turned out to be 130 °C.

`CC[C@@H]1O[C@](C#CC2CC2)(C(F)(F)F)c2c(ccc3c2OCO3)NC1=O` (relative stereo) registered a melting point of 201 to 202 °C.

`CCOC(=O)C(=CN(CC)c1ccc(C=O)s1)C(=O)OCC` gave a melting point of 45 °C.

As to `C=CC12CCc3cc(NS(=O)(=O)O)ccc3C1CCC1(C)C(O)CCC12` (centres undefined), the melting point is 82 to 86 °C.

The compound `O=C(O)c1cc2cc3[nH]c(=O)oc3cc2[nH]1` yielded a melting point of 288 to 290 °C.

In turn, `CCCc1nn(-c2ccc(C(F)(F)F)cn2)cc1CCCOc1ccc(C(C)(C)C(=O)O)cc1` returned a melting point of 84 to 85 °C.

For the compound `CCCC=Cc1c(C(C)C)nc(C(C)C)c(CO)c1-c1cccc(C)c1`, the melting point is 94 to 97 °C.

`COc1ccc(CNC(=O)c2cc3c(=O)n(Cc4ccc([N+](=O)[O-])nc4)c(=O)n(C)c3s2)cc1`: the melting point fell in the range of 238 to 241 °C.

As to `CCc1ccc(C#Cc2ccc(C=O)cc2)cc1`, the melting point worked out at 117 °C.

The compound `Nc1nc2c(s1)CC(CCN1CC=C(c3ccccc3)CC1)CC2` (centres undefined) yielded a melting point of 177 to 182 °C.

For the compound `COc1ccc(C(=O)N2CCNC2=Nc2c(Cl)cccc2Cl)cc1OC`, the melting point lay within 201 to 204 °C.

`Cc1ccccc1CC(=NC#N)NC(NC(=O)Cc1cccnc1)C(C)(C)C` (centres undefined): the melting point was in the range of 84 to 86 °C.

Regarding `CCCOCCOC(=O)C1=C(C)NC(C)=C(C(=O)C(C)S(=O)(=O)NC)C1c1cccc([N+](=O)[O-])c1` (centres undefined), the melting point was 120 to 123 °C.

Regarding `O=C(NCCCCN1CCC(c2cccc3ccccc23)CC1)c1ccc(NC(=O)c2ccc(Cl)cc2)cc1`, the melting point was found to be 264 °C.

In turn, `CCc1nc2cnc3cc(OCC(=O)N4CCOCC4)ccc3c2n1CCOc1ccccc1` registered a melting point of 190 to 191 °C.

As for `Cn1cnc2cc(C(c3ccccc3)n3ccnc3)ccc21` (centres undefined), the melting point came to 139 °C.

The compound `Cc1[nH]c2ccc([N+](=O)[O-])cc2c1Cn1ccnc1` showed a melting point of 240 to 242 °C.

In turn, `COc1c(OCCCCCC(=O)N(CCO)C2CCCCC2)ccc2c1CN1CC(=O)NC1=N2` yielded a melting point of 208 to 209 °C.

Turning to `O=C(O)C(Oc1ccc(OCc2ccccc2)cc1)c1ccc(OCCCOc2ccc(Cl)cc2)cc1` (centres undefined), the melting point fell in the range of 105 to 109 °C.

On to `Cc1cc2c(nc1C(O)c1ccc(C(F)(F)F)cc1)CCCCC2` (centres undefined), for which the melting point lay in the range of 131 to 133 °C.

Turning to `O=C(O)c1cc(Cl)c(Cl)c2c1OCC(CO)O2` (centres undefined), the melting point is 175 to 177 °C.

In the case of `COC(=O)c1cc2c(cc1O)OCO2`, the melting point was 100 to 101 °C.

In turn, `COCCOc1cc(NC(=O)OC(C)(C)C)c(NC(=O)CC(=O)c2cccc(-n3ccnc3)c2)cc1-c1ccc(F)cc1` returned a melting point of 61 to 63 °C.

`CCCCCN1C(=O)C2(COc3cc4c(cc32)OCCO4)c2ccccc21` (centres undefined) had a melting point of 111 to 113 °C.

Take `CC(=O)c1cc(Cn2ccnc2)ccc1O`: the melting point lay in the range of 106 to 107 °C.

The compound `CCC1=NNC(C)=C(C(=O)OC(C)(C)C)C1c1cccc([N+](=O)[O-])c1` (centres undefined) came in with a melting point of 122 °C.

`C=CCc1cc(C=C2SCNC2=O)cc(CC=C)c1O` showed a melting point of 184 to 188 °C.

With `Cn1ncnc1COc1nn2c(C3CC3)nncc2c1-c1ccccc1F`, the melting point lay within 97 to 99 °C.

The compound `COc1cccc2oc(-c3ccccc3Cl)cc(=O)c12` displayed a melting point of 148 to 149 °C.

With `CC(C)c1csc(COC(=O)NC(C(=O)NC(Cc2ccccc2)CC(O)C(Cc2ccccc2)NC(=O)OCc2cncs2)C(C)C)n1` (centres undefined), the melting point is 62 to 64 °C.

`COc1ccc(-c2cc(=O)c3c(O)cc(O)cc3o2)cc1OCC(O)CO` (centres undefined): the melting point was 215 to 218 °C.

In the case of `CCOC(=O)CCc1ccc(C)nc1`, the melting point was in the range of 36 to 37 °C.

`Brc1ccc2[nH]cc(C3=CCNCC3)c2c1` gave a melting point of 202 to 204 °C.

As to `CCCc1c(C(=O)C2CCCCC2)c2ccc(C(N)=O)cc2n1Cc1cc2c(cc1Cl)OCO2`, the melting point lay within 209 to 211 °C.

In turn, `COc1ccc(-c2nc(C(=O)NCCc3ccccn3)sc2-c2ccc(OC)cc2)cc1` had a melting point of 130 to 132 °C.

`CCc1nc(/C=C\c2cn(-c3ccccc3)nc2OCc2ccc(OCc3csc(N4CCCCC4)n3)c(OC)c2)cs1` came in with a melting point of 93 to 94 °C.

`O=C1c2cc(Oc3ccc(Cl)cc3)ccc2CCN1Cc1cccnc1` displayed a melting point of 93.5 to 94.5 °C.

`CCCCCCCCCCc1cccc(C(=O)N(O)CCCC(=O)O)c1` showed a melting point of 77 to 79 °C.

In turn, `CCOC(=O)CN1C(=O)[C@@H](N)[C@H](c2ccccc2)Sc2cc(Cl)ccc21` (relative stereo) showed a melting point of 173 to 175 °C.

On to `CC1(C)CCC(C)(C)c2cc(-c3cc4ccc(C(=O)O)cc4s3)ccc21`, for which the melting point worked out at 297 °C.

In turn, `CC(=Cc1ccccc1)COc1cc(C)c(NC=O)c(C)c1C` had a melting point of 152 to 154 °C.

The compound `COc1ccc(CNC(=O)c2cnc(SC)nc2NC(C)C)cc1` yielded a melting point of 176 to 177 °C.

The melting point is the temperature of the solid-liquid transition.
